Experimental data from PubChem BioAssay AID1963867 (Molecular Pharmacology Branch, DTP, NCI, 2024).

Test system: KRAS-mutant PDC tumor spheroid with HUVEC/MSC, viability
Experiment: Anticancer human tumor 327498-153-R-J2-PDC patient-derived uterine carcinosarcoma cell line growth inhibition [KRAS2]
Conditions: for viability, T/C: stronger effect = lower value
Outline: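 Combination screen of spheroid viability in tumor-cell co-cultures with endothelial (HUVEC) and mesenchymal stem cell stroma. Each agent was tested in half-log dilutions, topping at clinical Cmax or at 10 microM without a known Cmax.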

[1] = curve of first compound, second compound 0.0316 µM
[2] = curve of first compound, second compound 0.1 µM
[3] = curve of first compound, second compound 0.316 µM
[4] = curve of first compound, second compound 1 µM
[5] = curve of first compound, second compound 3.16 µM
[6] = second compound 0.0316 µM, first compound 0.000316 µM
[7] = second compound 0.0316 µM, first compound 0.001 µM
[8] = second compound 0.0316 µM, first compound 0.00316 µM
[9] = second compound 0.0316 µM, first compound 0.01 µM
[10] = second compound 0.0316 µM, first compound 0.0316 µM
[11] = second compound 0.1 µM, first compound 0.000316 µM
[12] = second compound 0.1 µM, first compound 0.001 µM
[13] = second compound 0.1 µM, first compound 0.00316 µM
[14] = second compound 0.1 µM, first compound 0.01 µM
[15] = second compound 0.1 µM, first compound 0.0316 µM
[16] = second compound 0.316 µM, first compound 0.000316 µM
[17] = second compound 0.316 µM, first compound 0.001 µM
[18] = second compound 0.316 µM, first compound 0.00316 µM
[19] = second compound 0.316 µM, first compound 0.01 µM
[20] = second compound 0.316 µM, first compound 0.0316 µM
[21] = second compound 1 µM, first compound 0.000316 µM
[22] = second compound 1 µM, first compound 0.001 µM
[23] = second compound 1 µM, first compound 0.00316 µM
[24] = second compound 1 µM, first compound 0.01 µM
[25] = second compound 1 µM, first compound 0.0316 µM
[26] = second compound 3.16 µM, first compound 0.000316 µM
[27] = second compound 3.16 µM, first compound 0.001 µM
[28] = second compound 3.16 µM, first compound 0.00316 µM
[29] = second compound 3.16 µM, first compound 0.01 µM
[30] = second compound 3.16 µM, first compound 0.0316 µM
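Also: spheroids exposed to agents for seven days before reading.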
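For viability, T/C in this document: 100% = DMSO vehicle wells so lower means fewer viable cells.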

With `CN(C)C/C=C/C(=O)Nc1cc2c(Nc3ccc(F)c(Cl)c3)ncnc2cc1O[C@H]1CCOC1` + C=CC(=O)N1CCN(c2nc(OCC3CCCN3C)nc3c2CCN(c2cccc4cccc(C)c24)C3)CC1CC#N the IC50 [1] was over 100 nM, the IC50 [2] was 22 nM and the IC50 [3] was 2.29 nM. For the same molecule, the IC50 [4] was 2.8 nM, the IC50 [5] was under 0.316 nM and the viability, T/C [6] was 88.8%. The viability, T/C [7] was 80.8%, the viability, T/C [8] was 74.4% and the viability, T/C [9] was 64.2%. For the same molecule, the viability, T/C [10] was 66.5%, the viability, T/C (second compound 0.0316 µM, first compound 0.1 µM) was 61.4% and the viability, T/C [11] was 62.9%. For the same molecule, the viability, T/C [12] was 64.1%, the viability, T/C [13] was 50.8% and the viability, T/C [14] was 53.7%. The viability, T/C [15] was 48.4%, the viability, T/C (second compound 0.1 µM, first compound 0.1 µM) was 47.5% and the viability, T/C [16] was 66.8%. The viability, T/C [17] was 56.2%, the viability, T/C [18] was 45.2% and the viability, T/C [19] was 44.8%. The viability, T/C [20] was 50.2%, the viability, T/C (second compound 0.316 µM, first compound 0.1 µM) was 45.1% and the viability, T/C [21] was 56.3%. It also gave a viability, T/C [22] of 54.9%, a viability, T/C [23] of 47% and a viability, T/C [24] of 49.1%. It also gave a viability, T/C [25] of 43.6%, a viability, T/C (second compound 1 µM, first compound 0.1 µM) of 44% and a viability, T/C [26] of 1.53%. The viability, T/C [27] was 0.35%, the viability, T/C [28] was 0.21% and the viability, T/C [29] was 1.34%. The viability, T/C [30] was 0.49% and the viability, T/C (second compound 3.16 µM, first compound 0.1 µM) was 0.3%.
With `CC(=O)Nc1cccc(-n2c(=O)n(C3CC3)c(=O)c3c(Nc4ccc(I)cc4F)n(C)c(=O)c(C)c32)c1` + C=CC(=O)N1CCN(c2nc(OCC3CCCN3C)nc3c2CCN(c2cccc4cccc(C)c24)C3)CC1CC#N the IC50 [1] was 6.53 nM, the IC50 [2] was 5.43 nM and the IC50 [3] was 3.49 nM. For the same molecule, the IC50 [4] was 0.128 nM, the IC50 [5] was under 0.1 nM and the viability, T/C (second compound 0.0316 µM, first compound 0.0001 µM) was 72.7%. It also gave a viability, T/C [6] of 64.8%, a viability, T/C [7] of 57.4% and a viability, T/C [8] of 58%. For the same molecule, the viability, T/C [9] was 49.1%, the viability, T/C [10] was 31.4% and the viability, T/C (second compound 0.1 µM, first compound 0.0001 µM) was 67.1%. The viability, T/C [11] was 68.3%, the viability, T/C [12] was 58.4% and the viability, T/C [13] was 53%. The viability, T/C [14] was 47.8%, the viability, T/C [15] was 25.4% and the viability, T/C (second compound 0.316 µM, first compound 0.0001 µM) was 58.5%. The viability, T/C [16] was 54.6%, the viability, T/C [17] was 55.7% and the viability, T/C [18] was 48%. The viability, T/C [19] was 44.7%, the viability, T/C [20] was 25.5% and the viability, T/C (second compound 1 µM, first compound 0.0001 µM) was 48.5%. For the same molecule, the viability, T/C [21] was 52.4%, the viability, T/C [22] was 45.7% and the viability, T/C [23] was 41.9%. The viability, T/C [24] was 35.8%, the viability, T/C [25] was 22.1% and the viability, T/C (second compound 3.16 µM, first compound 0.0001 µM) was 0.75%. The viability, T/C [26] was 0.19%, the viability, T/C [27] was 0.19% and the viability, T/C [28] was 0.22%. It also gave a viability, T/C [29] of 0.18% and a viability, T/C [30] of 0.31%.
For `O=C(c1cc(Cc2n[nH]c(=O)c3ccccc23)ccc1F)N1CCN(C(=O)C2CC2)CC1`, the viability, T/C (compound 0.0316 µM) was 108% [middle of 5 runs], the viability, T/C (compound 0.1 µM) was 99.3% [middle of 5 runs] and the viability, T/C (compound 0.316 µM) was 93% [middle of 5 runs]. For the same molecule, the viability, T/C (compound 1 µM) was 81.6% [middle of 5 runs], the viability, T/C (compound 3.16 µM) was 41.5% [middle of 5 runs] and the viability, T/C (compound 10 µM) was 18.4% [middle of 5 runs]. The IC50 (curve of compound) was 2.58 µM [middle of 5 runs].
With `CC1COCCN1c1cc(-c2ccnn2C)c2ccnc(-c3ccn[nH]3)c2n1` (stereo unspecified) the viability, T/C (compound 0.1 µM) was 16.4% [middle of 5 runs], the viability, T/C (compound 0.316 µM) was 6.37% [middle of 5 runs] and the viability, T/C (compound 1 µM) was 5.03% [middle of 5 runs]. For the same molecule, the viability, T/C (compound 3.16 µM) was 4.84% [middle of 5 runs].
